Each block holds one compound with its values, some of them ahead of it.
How the values were obtained:
IRAP = molecular target: T1, IRAP (Mus musculus, UniProt Q8C129); test: IRAP L-AMC hydrolysis assay; type: biochemical
T1 sequence (Q8C129 132-1025 limits assumed): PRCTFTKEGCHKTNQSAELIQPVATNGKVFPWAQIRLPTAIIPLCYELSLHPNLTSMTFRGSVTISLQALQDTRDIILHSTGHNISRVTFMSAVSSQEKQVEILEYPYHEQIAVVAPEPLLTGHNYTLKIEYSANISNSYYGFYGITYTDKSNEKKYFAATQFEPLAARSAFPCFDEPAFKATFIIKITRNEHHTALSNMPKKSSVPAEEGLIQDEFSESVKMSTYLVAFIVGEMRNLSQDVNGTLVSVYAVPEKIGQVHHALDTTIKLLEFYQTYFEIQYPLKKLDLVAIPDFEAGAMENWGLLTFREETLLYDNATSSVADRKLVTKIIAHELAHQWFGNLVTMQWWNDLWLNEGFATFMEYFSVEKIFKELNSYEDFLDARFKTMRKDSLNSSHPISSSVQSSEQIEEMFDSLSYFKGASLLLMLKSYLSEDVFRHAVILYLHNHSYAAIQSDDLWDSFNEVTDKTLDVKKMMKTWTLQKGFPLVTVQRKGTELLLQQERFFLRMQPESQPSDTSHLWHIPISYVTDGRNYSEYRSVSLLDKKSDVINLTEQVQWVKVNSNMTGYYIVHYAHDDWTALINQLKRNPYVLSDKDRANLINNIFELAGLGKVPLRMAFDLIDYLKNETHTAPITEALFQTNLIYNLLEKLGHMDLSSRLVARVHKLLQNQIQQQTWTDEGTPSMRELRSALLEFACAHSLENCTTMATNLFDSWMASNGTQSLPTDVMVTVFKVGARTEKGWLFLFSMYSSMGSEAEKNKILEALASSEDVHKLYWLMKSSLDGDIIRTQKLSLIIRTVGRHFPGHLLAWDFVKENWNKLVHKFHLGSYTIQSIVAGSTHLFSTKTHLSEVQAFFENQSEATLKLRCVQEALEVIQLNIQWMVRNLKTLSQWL

ERAP1 [1] = molecular target: T2, ERAP1 (Homo sapiens, UniProt Q9NZ08); test: ERAP1 L-AMC hydrolysis assay; type: biochemical
T2 sequence (Q9NZ08 22-941): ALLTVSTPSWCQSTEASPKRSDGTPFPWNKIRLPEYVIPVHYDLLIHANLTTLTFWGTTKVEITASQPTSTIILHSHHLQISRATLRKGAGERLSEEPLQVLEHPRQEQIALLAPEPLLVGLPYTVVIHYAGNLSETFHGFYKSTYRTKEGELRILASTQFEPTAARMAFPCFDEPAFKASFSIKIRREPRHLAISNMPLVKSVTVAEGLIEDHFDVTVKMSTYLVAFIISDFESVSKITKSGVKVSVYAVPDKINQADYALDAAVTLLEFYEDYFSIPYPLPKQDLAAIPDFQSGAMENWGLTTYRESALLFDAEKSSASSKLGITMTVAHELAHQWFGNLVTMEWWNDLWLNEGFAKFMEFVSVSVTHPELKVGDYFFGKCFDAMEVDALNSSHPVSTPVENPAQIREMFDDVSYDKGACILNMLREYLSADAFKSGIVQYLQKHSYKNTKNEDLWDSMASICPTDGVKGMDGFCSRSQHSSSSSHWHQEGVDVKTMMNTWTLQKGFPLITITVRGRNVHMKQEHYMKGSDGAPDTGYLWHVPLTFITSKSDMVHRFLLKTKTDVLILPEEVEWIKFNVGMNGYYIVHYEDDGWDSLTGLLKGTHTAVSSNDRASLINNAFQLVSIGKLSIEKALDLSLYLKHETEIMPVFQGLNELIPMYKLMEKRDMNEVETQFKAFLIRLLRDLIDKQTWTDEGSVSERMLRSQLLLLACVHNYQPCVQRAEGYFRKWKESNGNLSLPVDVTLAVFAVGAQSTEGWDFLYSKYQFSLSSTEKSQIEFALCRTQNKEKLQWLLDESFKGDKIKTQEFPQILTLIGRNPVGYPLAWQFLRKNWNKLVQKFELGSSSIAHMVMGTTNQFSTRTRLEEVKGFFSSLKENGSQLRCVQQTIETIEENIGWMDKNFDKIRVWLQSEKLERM

ERAP1 [2] = molecular target: T2, ERAP1; test: ERAP1 WK10; type: biochemical; details: Figure 3B
ERAP1 [3] = molecular target: T2, ERAP1; test: ERAP1 L-pNA hydrolysis mode of action kinetics; type: biochemical
ERAP1 [4] = molecular target: T2, ERAP1; test: ERAP1 LF9 peptide hydrolysis coupled-enzyme assay, mode of action; type: biochemical; details: LF9 peptide substrate
ERAP1 K551A = test: L-AMC activation assay with mutant ERAP1 K551A; type: biochemical, human
ERAP1 allele II = test: L-AMC hydrolysis assay with ERAP1 allelic variant allele II; type: biochemical, human; details: disease-associated allele II (528K)

Structure (SMILES): CC(=O)N1CCN(C(=O)C2(NC(=O)Nc3ccc(C)cc3)CCCCC2)CC1 [Compound 2, 1-(1-(4-Acetylpiperazine-1-carbonyl)cyclohexyl)-3-(p-tolyl)urea]
IC50 (IRAP): > 200 µM

Structure (SMILES): COc1ccc(NC(=O)NC2(C(=O)N3CCN(C(C)=O)CC3)CCCCC2)cc1 [Compound 17, 1-(1-(4-Acetylpiperazine-1-carbonyl)cyclohexyl)-3-(4-methoxyphenyl)urea]
IC50 (IRAP): > 200 µM

Structure (SMILES): CC(=O)N1CCN(C(=O)C2(NC(=O)Nc3ccc(Cl)cc3)CCCCC2)CC1 [Compound 16, 1-(1-(4-Acetylpiperazine-1-carbonyl)cyclohexyl)-3-(4-chlorophenyl)urea]
IC50 (IRAP): > 200 µM

Structure (SMILES): N=C(NCCc1c[nH]c2ccccc12)NS(=O)(=O)c1cc(F)ccc1F [Compound 1, N-(N-(2-(1H-Indol-3-yl)ethyl)carbamimidoyl)-2,5-difluorobenzenesulfonamide]
effect on WK10 peptide hydrolysis (ERAP1 [2]): inhibited peptide hydrolysis in a dose-dependent manner | mode of inhibition (ERAP1 [3]; L-pNA substrate): competitive | change in potency for mutant ERAP1 (L-AMC inhibition) (ERAP1 T350A): small reduction in potency

Structure (SMILES): COc1ccc(C(=O)O)cc1S(=O)(=O)Nc1cc(C(F)(F)F)ccc1N1CCCCC1 [Compound 3, 4-Methoxy-3-(N-(2-(piperidin-1-yl)-5-(trifluoromethyl)phenyl)sulfamoyl)benzoic acid]
IC50 (IRAP): > 200 µM | effect on IRAP activity (IRAP; Figure 2C): no detectable effect | effect on WK10 peptide hydrolysis (ERAP1 [2]): inhibited peptide hydrolysis in a dose-dependent manner | increase of L-pNA hydrolysis activity (Vmax/Khalf) (ERAP1 [3]; over the concentration range tested): up to 1.8 fold | mode of inhibition (ERAP1 [4]): competitive | effect of mutation on L-AMC AC50 (ERAP1 K551A): substantial effect | L-AMC AC50 for ERAP1 allele II (ERAP1 allele II): sub-micromolar

More lines, now with the values ahead:

activity in ERAP1 L-AMC hydrolysis assay (ERAP1 [1]): no detectable inhibitory activity | IC50 (IRAP): > 200 µM
Structure (SMILES): Cc1ccc(NC(=O)NC2(C(=O)N3CCOCC3)CCCCC2)cc1 [Compound 20, 1-(1-(Morpholine-4-carbonyl)cyclohexyl)-3-(p-tolyl)urea]

activity in ERAP1 L-AMC hydrolysis assay (ERAP1 [1]): no detectable inhibitory activity | IC50 (IRAP): > 200 µM
Structure (SMILES): Cc1ccc(NC(=O)NC2(C(=O)N3CCN(c4ccccc4)CC3)CCCCC2)cc1 [Compound 21, 1-(1-(4-Phenylpiperazine-1-carbonyl)cyclohexyl)-3-(p-tolyl)urea]

IC50 (IRAP): > 200 µM
Structure (SMILES): CC(=O)N1CCN(C(=O)C2(NC(=O)Nc3ccccc3)CCCCC2)CC1 [Compound 19, 1-(1-(4-Acetylpiperazine-1-carbonyl)cyclohexyl)-3-phenylurea]

IC50 (IRAP): > 200 µM
Structure (SMILES): CC(=O)N1CCN(C(=O)C2(NC(=O)Nc3ccc(F)cc3)CCCCC2)CC1 [Compound 18, 1-(1-(4-Acetylpiperazine-1-carbonyl)cyclohexyl)-3-(4-fluorophenyl)urea]

IC50 (IRAP): > 200 µM
Structure (SMILES): CC(=O)N1CCN(C(=O)C2(NC(=O)Nc3ccc(C)cc3)CC2)CC1 [Compound 23, 1-(1-(4-Acetylpiperazine-1-carbonyl)cyclopropyl)-3-(p-tolyl)urea]

IC50 (IRAP): > 200 µM
Structure (SMILES): CC(=O)N1CCN(C(=O)C(C)(C)NC(=O)Nc2ccc(C)cc2)CC1 [Compound 22, 1-(1-(4-Acetylpiperazin-1-yl)-2-methyl-1-oxopropan-2-yl)-3-(p-tolyl)urea]

From paper PMC8218592 (Journal of medicinal chemistry, 2019)
